Results taken from patent US20230201870A1, “PLASMA COATING METHOD AND APPARATUS FOR BIOLOGICAL SURFACE MODIFICATION” (MOLECULAR PLASMA GROUP S.A., priority 2020, published 2023).
Where two headings read alike, the source gives them in different places.

Legend:
Assay type in all cases: cell-based
Bacteriophage MS2 = assay: Viral load reduction test (ASTM E2721-16, MS2 in place of Influenza A) on plasma-coated substrate
[1] = test system: Staphylococcus aureus (gram-positive); assay: Antibacterial activity of plasma-coated material (OECD guideline, ISO 22197/20743), gram-positive; details: S. aureus
[2] = test system: Escherichia coli (gram-negative); assay: Antibacterial activity of plasma-coated material (OECD guideline, ISO 22197/20743), gram-negative; details: E. coli
[3] = plasma coating from precursor on Tyvek substrate, MS2 phages, vs untreated control, LOD = limit of detection
[4] = PPNW substrate (polypropylene nonwoven, 25 g/m^2)
[5] = synthetic textile substrate (Tyvek)

Molecule | LOG Reduction (Bacteriophage MS2; [3]) | %Gram+ bacteria reduced [1, 4] [%] | Gram+ log reduction [1, 4] [log] | %Gram+ bacteria reduced [1, 5] [%] | Gram+ log reduction [1, 5] [log] | % Gram-bacteria reduced [2, 4] [%] | Gram-log reduction [2, 4] [log] | % Gram-bacteria reduced [2, 5] [%] | Gram-log reduction [2, 5] [log] | LOG Reduction (Bacteriophage MS2)
C=CC(=O)NCCC[N+](C)(C)C.[Cl-] [APTAC, (3-Acrylamidopropyl)trimethylammonium chloride] | 2.1 log | – | – | – | – | – | – | – | – | –
O=C(O)CC(O)(CC(=O)O)C(=O)O [Citric acid] | > 5.0 (LOD) log | > 99.995 | > 4.3 | > 99.98 | > 3.8 | > 99.999 | > 5.0 | 97.5 | 1.6 | –
C=C(C)C(=O)OCCN(C)C [DIMAEMA, 2-(N,N-dimethylamino)ethyl methacrylate] | – | > 99.994 | > 4.2 | > 99.95 | > 3.3 | > 99.9996 | > 5.4 | 20.6 | 0.1 | –
CCCCCCCCCCCCCCCCCC[N+](C)(C)CCC[Si](OC)(OC)OC.[Cl-] [SiQAM, Dimethyloctadecyl[3-(trimethoxysilyl)propyl] ammonium chloride solution] | 1.56 log | > 99.994 | > 4.2 | > 99.95 | > 3.3 | > 99.9996 | > 5.4 | > 98.7 | > 1.9 | –
Benzalkonium chloride [reference compound] | – | > 99.994 | > 4.2 | > 99.5 | > 3.3 | – | 5.4 | – | 1.9 | > 3.8 (LOD) log
